Experimental findings from patent US20240141408A1, “CELL-BASED ASSAY FOR IDENTIFICATION OF ACTIVATORS OF GAMMA-SECRETASE” (The Brigham and Women’s Hospital, Inc., priority 2021, published 2024) are described below.

Structures are written as SMILES.

For this test, the system named is γ-secretase. Put plainly: Notch target gene reporter (Hes1-Luc / NotchΔE) luciferase assay in stable MEFs. The note with it: L435F KI/+ stable cells, clone A23; FIG. 4. In kind it is cell-based, mouse. Here is the method: For screening, cells were seeded in 384-well plates using Thermo Multidrop Combi at a density of 2,500 cells in 30 μl media and compounds were transferred by Seiko Compound Transfer Robot on the same day. For dose response, compounds were dispensed via the Hewlett Packard D300.
The steady glo luciferase assay system (Promega) was used to determine firefly luciferase activity per manufacturer's instructions. Luciferase activity was detected 24 hours after transfection using a plate reader (Perkin Elmer EnVision).
MEFs (1.5×10^6) were seeded in two 10-cm tissue culture plates; one to be used as a negative control. The next day, one plate is transfected with 9 μg CMV-NotchΔE (neomycin) and […] Hes1Luciferase (hygromycin) plasmids. 24-hours later, cells in both plates were passaged 1:100, 1:200 and 1:1000 and maintained in DMEM media supplied with 10% FBS, 100 ug/ml Hygromycin, and 200 μg/ml G418. Media was changed every 3 days and cells were checked daily ensuring that cells in the untransfected plates (negative control) have died. Within two weeks, hygromycin/G418 resistant colonies were formed with a diameter of approximately 5 mm. Each clone was transferred into a separate well of a 24-well plate. When confluent, MEFs were transferred into 6-well plates then into 10 cm dishes. For each clone, some cells were frozen while others harvested to test luciferase and notchΔE expression via luciferase assay, western blot and Q-RT-PCR.
For the identification of compounds that could increase the activity of γ-secretase, a Notch target gene reporter system was created. It contains two plasmids: Hes1 proximal promoter containing two Notch responsive CBF1/RBPJκ binding sites driving expression of a firefly luciferase in a hygromycin resistant plasmid (Hes1-Luc-Hygro), and CMV promoter and NotchΔE cloned in a neomycin resistant plasmid (CMV-NΔE-Neo) (FIG. 1A).
For the identification of compounds that could increase γ-secretase activity, L435F KI/+ stable cells expressing both CMV-NΔE-Neo and Hes1-Luc-hygro were generated. Luciferase expression in the selected clones was confirmed via a luciferase assay (FIG. 3A). We also performed quantitative RTPCR using primers specific for luciferase and Notch-cMyc to confirm their expression (FIG. 3B-C).
After generating the stable cells, 384-well plates were optimized in the EnVision plate reader for plate dimension, and crosstalk correction. To provide a robust (high Z′ factor) HTS-compatible assay, four clones expressing different levels of NotchΔE and luciferase (FIG. 3A-C, black arrows) were compared to identify the maximum difference in signal between DMSO, and DAPT (γ-secretase inhibitor), as well as genetic positive (a clone expressing high levels of luciferase) controls. […]

Turning to `C[C@H](NC(=O)Cc1cc(F)cc(F)c1)C(=O)N[C@H](C(=O)OC(C)(C)C)c1ccccc1` [DAPT], the luciferase activity entry was “reduction of luciferase activity”.

Consider `COc1ccc2c(c1)c(CC(=O)O)c(C)n2C(=O)c1ccc(Cl)cc1` [Indomethacin], for which the luciferase activity entry is listed as “lesser effect”.

For the compound `CC(C)C[C@H](NC(=O)[C@H](Cc1ccccc1)C[C@@H](O)[C@H](Cc1ccccc1)NC(=O)OC(C)(C)C)C(=O)N[C@@H](Cc1ccccc1)C(N)=O` [L685,458], the luciferase activity entry is “reduction of luciferase activity”.

Consider `C[C@@H](C(=O)O)c1ccc(-c2ccccc2)c(F)c1` [R-Flurbiprofen], for which the luciferase activity result is “lesser effect”.
